Paper PMC6651024, “LIR Motif-Containing Hyperdisulfide β-Ginkgotide is Cytoprotective, Adaptogenic, and Scaffold-Ready” (Molecules, 2019)
“Also recorded” adds a separate entry of the source. Where a SMILES comes first, the peptide text is derived from it.

Assays:
[1] = Thermal stability by far-UV circular dichroism spectroscopy; type: physicochemical; settings: heating up to 90 °C (20, 55, 90 °C); 42 µM peptide in sodium phosphate buffer pH 7.5; 190-260 nm
Procedure: The secondary structure and thermal stability of the synthetic β-gB1 were assessed using circular dichroism (CD) spectroscopy. The far-UV CD data of β-gB1 were acquired at 20 °C, and secondary structure composition was predicted using the CDSSTR algorithm with a normalized root mean square deviation (RMSD) value of 0.021. The CD spectroscopy spectra agreed with the predicted secondary structure of folded β-gB1, which consists 28% strands, 16% turns, 1% helices, and 55% unordered structures (Figure 1A). The spectrum is in strike contrast with that of the S-reduced β-gB1, which is devoid of a secondary structure (Figure 1A).
Far-UV CD spectra were recorded for the synthetic and folded β-ginkgotide β-gB1 (42 µM) in a sodium phosphate buffer (pH 7.5) on a Chirascan™ CD spectrometer (Applied Photophysics, Leatherhead, UK) equipped with a temperature controller. Spectra were acquired between 190 and 260 nm from 20 to 90 °C using a 1 mm path-length quartz cuvette, a 1 nm spectral bandwidth, and a 1 nm step size. CD spectroscopy data were analyzed for secondary structure content using CDSSTR [23]. CD data were expressed as mean residue ellipticity (in deg cm^2dmol^−1).

[2] = Enzymatic (proteolytic) stability against trypsin; type: in vitro ADME; settings: isolated enzyme trypsin; 800 U/mL trypsin, 0.1 M ammonium bicarbonate buffer pH 7.8, 37 °C, 6 h; 28 µg peptide in 100 µL; MALDI-TOF MS and C18 RP-HPLC; read-out: Peptide remaining intact after trypsin treatment
Procedure: To assess the proteolytic stability of β-gB1, it was treated with trypsin or pepsin for 6 h. […] Similarly, the S-alkylated β-gB1 was degraded completely by pepsin within 30 min. […] This is in agreement with other plant CRPs that contain a compact structure, whose proteolytic stability was examined up to six hours treatment.
The folded β-gB1 (28 µg) was added to 100 μL of a 0.1 M ammonium bicarbonate buffer (pH 7.8) containing 800 U/mL of trypsin or 4 mg/mL of pepsin and incubated at 37 °C for 6 h. At each time-point (0, 1, 2, 4, and 6 h), 20 µL of the treated sample was aliquoted and quenched by adding 5 µL of 1 M hydrochloric acid or 0.8 μL of 1 M sodium hydroxide. The reduced β-gB1 was alkylated with iodoacetamide (S-alkylated β-gB1) and used as a control in this study. The reaction mixture was analyzed by MALDI-TOF MS and C18-reversed-phase HPLC to determine its stability.

SH-SY5Y cells [3] = assay: Hypoxia-reoxygenation injury, MTT assay, SH-SY5Y; type: cell-based, human; settings: 1 µM peptide, 24 h hypoxia then 24 h normoxia, triplicates
Procedure: Cells were cultured with or without β-gB1 and its S-alkylated β-gB1, first under the hypoxic condition for 24 h and then at a normal oxygen environment for another 24 h. The cell viability under hypoxia-reoxygenation condition was assessed by the MTT assay.
(§1) Rat cardio-myoblast cells (H9c2) and […] neuron-like SH-SY5Y cells were purchased from ATCC and maintained in DMEM (Dulbecco’s modified eagle medium) medium supplemented with 10% fetal bovine serum (FBS), 10,000 U/mL of penicillin, and 10,000 µg/mL of streptomycin at 37 °C, 5% CO2.
Cells were seeded in a cell culture medium with/without β-gB1 and incubated at 37 °C, 5% CO2 overnight. The next day, the cells were locked inside a BD GasPak EZ anaerobe pouch system (BD Diagnostics, MD) and incubated at 37 °C for the next 48 h for the hypoxia condition. In addition, the cells were cultured under a normal oxygenated environment for the normoxic control. In hypoxia-reoxygenation experiments, the cells were incubated for 24 h in hypoxic conditions before being incubated for another 24 h under normoxia.
Phosphate-buffered saline (PBS) was used as a vehicle control.

SH-SY5Y cells [4] = assay: MTT-based cell proliferation assay under normoxia, SH-SY5Y; set-up: species or system human; settings: 10 µM peptide, 48 h, triplicates
Source text: (§2) In addition, β-gB1 is non-toxic to Vero and BHK (baby hamster kidney) cell lines based on an MTT assay. […] LDH is a cytoplasmic enzyme which is rapidly released into the cell culture medium upon plasma membrane damage and is widely used as a marker for cytotoxicity. Thus, an LDH-release assay measures the level of plasma membrane damage to a cell population.
as §1
Cells were cultured in DMEM with or without β-gB1/S-alkylated β-gB1 (β-gB1Alk) for 48 h under normoxia, hypoxia, and hypoxia-reoxygenation conditions. Phosphate-buffered saline (PBS) was used as a vehicle control. After 48 h, MTT (3-(4,5-dimethylthiazol-2-yl)-2,5-diphenyltetrazolium bromide) reagent was added with a final concentration of 0.5 mg/mL, and it was incubated at 37 °C for 2 h. The culture medium was then aspirated, and purple formazan crystals were dissolved in DMSO for colorimetric quantification at 570 nm using a microplate reader with a reference wavelength of 630 nm. […]

H9c2 cells = assay: LDH release cytotoxicity assay, H9c2; type: cell-based, rat; settings: H9c2, 10 µM peptide, 48 h, 37 °C; LDH kit, 450 nm; triplicates
Source text: as §2, §1
An LDH release assay was performed using the CytoSelect™ LDH cytotoxicity assay kit (CBA-241, Cell Biolabs, Inc., San Diego, CA, USA). In brief, cells were cultured in DMEM with or without 10 µM of β-gB1 and S-alkylated β-gB1 (β-gB1Alk) for 48 h at 37 °C and 5% CO2. PBS was used for the vehicle control experiment. The culture medium was transferred and mixed with the LDH assay reagent in a ratio of 9:1. The reaction mixture was incubated at 37 °C for 2 h, and colorimetric quantification was performed using a 450 nm wavelength. The assay was performed in experimental triplicates, and statistical calculations and bar graphs were done using GraphPad Prism software (Version 6.01). […]

Escherichia coli = settings: concentrations up to 100 µM; cited from earlier work
Candida albicans = settings: concentrations up to 100 µM; cited from earlier work
Candida tropicalis = settings: concentrations up to 100 µM; cited from earlier work
[5] = tested on: BHK (baby hamster kidney) cell line; settings: MTT assay; cited from earlier work
Source text: (§3) In addition, β-gB1 is non-toxic to Vero and BHK (baby hamster kidney) cell lines based on an MTT assay. […] LDH is a cytoplasmic enzyme which is rapidly released int ...

Vero cell line = settings: MTT assay; cited from earlier work
Source text: as §3

CC[C@H](C)[C@@H]1NC(=O)[C@@H]2CSSC[C@H](NC(=O)CNC(=O)[C@@H](NC(=O)[C@H](CCC(=O)O)NC(=O)[C@@H](N)Cc3ccc(O)cc3)[C@@H](C)O)C(=O)N[C@@H](CCCCN)C(=O)N[C@@H](CCCNC(=N)N)C(=O)N[C@H]3CSSC[C@@H](C(=O)O)NC(=O)[C@H](CSSC[C@H](NC3=O)C(=O)N[C@@H](Cc3ccc(O)cc3)C(=O)N[C@@H](CC(C)C)C(=O)N[C@@H](CC(=O)O)C(=O)N[C@@H](CCC(=O)O)C(=O)N[C@@H](Cc3ccc(O)cc3)C(=O)NCC(=O)N2)NC(=O)[C@H](CCCNC(=N)N)NC1=O [β-gB1] (HELM PEPTIDE1{Y.E.T.G.C.K.R.C.C.Y.L.D.E.Y.G.C.I.R.C.C}$PEPTIDE1,PEPTIDE1,5:R3-16:R3|PEPTIDE1,PEPTIDE1,8:R3-20:R3|PEPTIDE1,PEPTIDE1,9:R3-19:R3$$$V2.0; N-terminus and C-terminus assumed)
Effect of heating on far-UV CD spectrum (thermal denaturation) [1]: did not alter its CD spectrum | remaining at 6 h [2]: ~90% | Increase of cell survivability under hypoxia-reoxygenation (SH-SY5Y cells [3]): 19% | Cell viability (growth or death) under normoxia (SH-SY5Y cells [4]): No change in cell viability; also recorded: no significant effect on the growth or death | Cytotoxicity / cell-membrane damage by LDH release (H9c2 cells): no significant cytotoxicity or cell-membrane damaging effects | Antimicrobial effect (Escherichia coli): does not exhibit an antimicrobial effect | Antimicrobial effect (Candida albicans): does not exhibit an antimicrobial effect | Antimicrobial effect (Candida tropicalis): does not exhibit an antimicrobial effect | Toxicity to cell line [5]: non-toxic | Toxicity to cell line (Vero cell line): non-toxic
